{"source": "ChEMBL document CHEMBL5674877", "about": "“PRMT5: A novel regulator of Hepatitis B virus replication and an arginine methylase of HBV core” (PLoS One, 2017)", "format_in_all_cases": "cell-based", "key": {"[1]": {"target": "Protein arginine N-methyltransferase 5 (Homo sapiens) (UniProt O14744)", "sequence (O14744 whole entry)": "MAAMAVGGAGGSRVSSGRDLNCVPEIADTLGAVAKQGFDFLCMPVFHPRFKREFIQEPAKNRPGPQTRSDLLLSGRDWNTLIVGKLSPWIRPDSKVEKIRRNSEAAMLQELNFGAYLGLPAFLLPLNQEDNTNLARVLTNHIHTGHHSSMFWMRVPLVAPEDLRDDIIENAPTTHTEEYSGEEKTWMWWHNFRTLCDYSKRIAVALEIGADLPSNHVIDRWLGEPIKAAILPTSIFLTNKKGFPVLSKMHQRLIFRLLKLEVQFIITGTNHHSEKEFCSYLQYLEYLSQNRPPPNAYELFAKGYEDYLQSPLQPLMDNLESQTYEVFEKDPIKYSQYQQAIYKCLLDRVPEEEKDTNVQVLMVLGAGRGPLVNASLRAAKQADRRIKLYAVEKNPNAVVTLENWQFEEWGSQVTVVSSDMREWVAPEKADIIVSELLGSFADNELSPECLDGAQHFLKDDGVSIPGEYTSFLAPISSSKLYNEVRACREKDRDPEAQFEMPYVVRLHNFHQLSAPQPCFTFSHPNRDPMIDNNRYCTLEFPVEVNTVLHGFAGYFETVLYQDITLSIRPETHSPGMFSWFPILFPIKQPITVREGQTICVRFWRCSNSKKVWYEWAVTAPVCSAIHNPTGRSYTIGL", "experiment": "Inhibition of PRMT5 in human HepG2_hNTCP cells transfected with constant amounts of HBc-HA assessed as reduction in symmetric arginine dimethylation of HBc at 0.5 to 500 nM incubated for 72 hrs by Western blot analysis", "settings": "HepG2-hNTCP, dose 0.5-500 nM"}, "[2]": {"target": "Protein arginine N-methyltransferase 5 (Homo sapiens) (UniProt O14744)", "experiment": "Inhibition of PRMT5 in human HepG2_hNTCP cells transfected with constant amounts of HBc-HA assessed as decrease in intensity of methylation of SmB/B' at 0.5 to 500 nM incubated for 72 hrs by Western blot analysis", "settings": "HepG2-hNTCP, dose 0.5-500 nM"}, "[3]": {"target": "Protein arginine N-methyltransferase 5 (Homo sapiens) (UniProt O14744)", "experiment": "Inhibition of PRMT5 in human HepG2_hNTCP cells transfected with constant amounts of HBc-HA assessed as decrease in intensity of methylation of SmD3 at 0.5 to 500 nM incubated for 72 hrs by Western blot analysis", "settings": "HepG2-hNTCP, dose 0.5-500 nM"}, "[4]": {"target": "Protein arginine N-methyltransferase 5 (Homo sapiens) (UniProt O14744)", "experiment": "Inhibition of PRMT5 in human HepG2_hNTCP cells transfected with constant amounts of HBc-HA assessed as reduction in symmetric arginine dimethylation of HBc at 5 nM incubated for 72 hrs by Western blot analysis relative to control", "settings": "HepG2-hNTCP"}}}
{"smiles": "O=C(NC[C@H](O)CN1CCc2ccccc2C1)c1ccnc(NC2CCC2)c1", "values": [{"measurement": "inhibition", "setting": "[1]", "result": "Dose-Dependent Effect"}, {"measurement": "inhibition", "setting": "[2]", "result": "Dose-Dependent Effect"}, {"measurement": "inhibition", "setting": "[3]", "result": "Dose-Dependent Effect"}, {"measurement": "fold change (FC)", "setting": "[4]", "result": 0.5}]}
